Here are results for six compounds from patent publication US4309559A, “Sulphonamides useful as pesticides” (FBC Limited, priority 1977, dated 1982).

Read-outs that look alike come from different tables or passages of the source.

The test system of data set [1] is cabbage seeds, variety Flower of Spring. The data set can be described thus: Phytotoxicity of chemical alone on cabbage seed germination (chemical only soil treatment). The format is in vivo. As for the experimental part: Fifteen cabbage seeds, variety Flower of Spring, were placed in a circular depression in the treated infected soil, recovered, and the whole sealed with a plastic cap. The cartons were then placed in a constant temperature room at 25° C.±1° C. Four replications per treatment were made, with one additional treatment where seeds were sown in soil which was chemically treated only, i.e. there was no infection. This latter treatment was included to measure the direct effect of the chemical on the germination of the seed. and are given in the following table. Any phytotoxicity induced by the chemical alone is deduced from the chemical only soil treatment.

Data set [2] deals with Pythium ultimum. Description: Cabbage seedling emergence in soil infected with Pythium ultimum. It is filed as in vivo, Pythium ultimum (on cabbage, variety Flower of Spring). To be noted: 6 days, 25° C. As for the experimental part: (§1) A one week old maize meal/sand culture of the damping-off disease organism Pythium ultimum was thoroughly mixed by hand with clean sterile John Innes No. 1 potting compost in the ratio of 3 kg culture to 12 liters of soil. The infected soil was then left for approximately 18 hours before use. Each of the compounds listed below was ground together with a wetting agent, Tween 20 (1% of final volume), until a solution or fine suspension was produced which was then diluted with distilled water to give 160 ml of solution containing 1500, 500, 150 or 50 ppm active ingredient. 15 ml aliquots of this solution were added to 75 g portions of the soil infected with Pythium ultimum which were contained in small plastic cartons, 60 mm diameter×55 mm high. Fifteen cabbage seeds, variety Flower of Spring, were placed in a circular depression in the treated infected soil, recovered, and the whole sealed with a plastic cap. The cartons were then placed in a constant temperature room at 25° C.±1° C. Four replications per treatment were made with one additional treatment where seeds were sown in soil which was chemically treated only, i.e. there was no infection. This latter treatment was included to measure the direct effect of the chemical on the germination of the seed. After six days the cartons were removed from the controlled temperature chamber and assessed for degree of fungal growth on the soil surface and percentage of seedling emergence. The results of both these assessments are expressed in a 0-8 scale as follows:
(§2) One week old maize meal/sand culture of the damping-off disease organism Pythium ultimum was thoroughly mixed by hand with clean sterile John Innes No. 1 potting compost in the ratio of 3 kg culture to 12 liters of soil. This infected soil was then left for approximately 18 hours before use. The compounds listed in the Table below were each ground with the wetting agent Tween 20 (1% of final volume), until a solution or fine suspension was produced, which was then diluted with distilled water to give 160 ml of solution containing 1500 or 500 parts per million (ppm) active ingredient. 15 ml aliquots of this solution were added to 75 g portions of the soil infected with Pythium ultimum which were contained in small plastic cartons, 60 mm diameter×55 mm high.
(§3) Fifteen cabbage seeds, variety Flower of Spring, were placed in a circular depression in the treated infected soil, recovered, and the whole sealed with a plastic cap. The cartons were then placed in a constant temperature room at 25° C.±1° C. Four replications per treatment were made, with one additional treatment where seeds were sown in soil which was chemically treated only, i.e. there was no infection. This latter treatment was included to measure the direct effect of the chemical on the germination of the seed.
(§4) After six days, the cartons were removed from the controlled temperature chamber and assessed for degree of fungal growth on the soil surface and percentage of seedling emergence. The results of both these assessments are expressed in a 0-8 scale as follows:
(§5) N-(2-oxopropyl)-3',4'-dimethyl-methanesulphonanilide was tested at a dose rate of 300 ppm in the test described in Examples 233 and 234. It gave a mycelial control score of 0 and a germination score of 3 whereas the untreated samples gave a score of 0 for both.

For data set [3], the system named is vine downy mildew, Plasmopara viticola. The data set can be described thus: Vine downy mildew control on vine plants (application to soil and leaves). To be noted: 2000 ppm, 12 days, controls less than 5%. The format is in vivo. How it is done:
Aqueous acetone solutions of each of the compounds listed in the Table below, containing 2000 parts per million (ppm), together with 125 ppm of a suitable wetting agent, were applied to the soil surrounding the roots and leaves of vine plants having five fully expanded leaves.
The treated plants, together with controls treated with wetting agent alone, were inoculated 24 hours after the chemical application with an aqueous suspension of sporangia of the disease organism known as vine downy mildew, Plasmopara viticola.

Data set [4] deals with Pythium ultimum. Description: Fungal growth on the surface of soil infected with damping-off disease organism. The format is in vivo. The following applies: 6 days, 25° C. How it is done: as §1, §2, §3, §4, §5
Data set [5] has as its system vine downy mildew Plasmopara viticola. Description: Vine downy mildew control on vine plants (leaf application). The following applies: leaves, 12 days, controls less than 5%. It is filed as in vivo. How it is done: Aqueous acetone solutions or suspensions containing 2000 or 500 mg of the compound listed below per liter, together with 125 mg of a wetting agent per liter, were applied to:
(B) the leaves of vine plants having five fully expanded leaves;
The treated plants, together with controls treated with wetting agent alone, were inoculated 24 hours after the chemical application:
in the case of (B) with an aqueous suspension of sporangia of the disease organism vine downy mildew Plasmopara viticola;
in the case of (B) were placed in an atomosphere of 80-100% humidity at 14°-18° C. until the disease incidence was measured twelve days later;

The subject of data set [6] is rice blast Pyricularia oryzae. The format is in vivo. The following applies: soil and leaves, 7 days, controls less than 5%.
The subject of data set [7] is potato blight Phytophthora infestans. The format is in vivo. The following applies: 5 days, controls less than 5%.
For data set [8], the system named is cucumber powdery mildew Erysiphe cichoracearum. Description: Cucumber powdery mildew control on cucumber plants. The following applies: 2000 ppm; soil and leaves; 14 days; controls less than 5%. It is filed as in vivo.
The subject of data set [9] is barley powdery mildew Erysiphe graminis. Description: Barley powdery mildew control on barley plants. The format is in vivo. The following applies: 2000 ppm; soil and leaves; 10 days; controls less than 5%.
Setting [10] is: 100 ppm, 0-8 scale (Examples 233, 234).
Where [11] appears, read: 300 ppm, 0-8 scale (Examples 233, 234, 268).

Consider `COC(C)(CN(c1c(C)cccc1Cl)S(C)(=O)=O)OC` [Example 222, N-(2,2-dimethoxypropyl)-2'-chloro-6'-methyl-methanesulphonanilide], for which the “Phytotoxicity Score” value in data set [1] (100 ppm) and in data set [1] (300 ppm) was 0 each time. The “Germination Score” value with Pythium ultimum [2] (setting [10]) and in the data set with Pythium ultimum [2] (setting [11]) was 1 (20-34% inhibition) throughout. In addition, in data set [3], the “% Control Vine Downing Mildew” value is listed as 94%. Further, the “Mycelial Control Score” value with Pythium ultimum [4] (setting [10]) is listed as 3 (45-54% inhibition); with Pythium ultimum [4] (setting [11]), 4 (55- 64% inhibition).
As for `COC(=O)C(C)N(c1c(C)cccc1C)S(C)(=O)=O` (stereo not shown) [Example 29, N-(1-(methoxycarbonyl)ethyl)-2',6'-dimethyl-methanesulphonanilide], the “% Control, vine downy mildew” value in [5] (500 ppm) came out at 90%; in data set [5] (2000 ppm), 98%.
On to `CON=C(C)CN(c1c(C)cccc1C)S(C)(=O)=O` [Example 249], for which the “% Control, rice blast” value in data set [6] (500 ppm) was found to be 66%. In addition, the “% Control, potato blight” value in [7] (500 ppm) was found to be 74%.
On to `Cc1cccc(Cl)c1N(CC1(C)OCCO1)S(C)(=O)=O` [Example 230, N-[(2-methyl-1,3-dioxolan-2-yl)methyl]-2'-chloro-6'-methylmethanesulphonanilide], for which the “% Control Vine Downing Mildew” value in [3] is 80%.
On to `Cc1cccc(C)c1N(C1CCOC1=O)S(C)(=O)=O` (stereo not shown) [Example 123], for which, in [8], the “% Control, cucumber powdery mildew” value is recorded as 92%. The “% Control, barley powdery mildew” value in data set [9] worked out at 95%.
Consider `CC(=O)CN(c1ccc(C)c(C)c1)S(C)(=O)=O` [Example 272, N-(2-oxopropyl)-3',4'-dimethylmethanesulphonanilide], for which the “% Control, rice blast” value in data set [6] (2000 ppm) is reported as 67%. The “Germination Score” value with Pythium ultimum [2] (setting [11]) is on record as 3 (45-54% inhibition). The “% Control, potato blight” value in data set [7] (2000 ppm) came out at 62%. The “Mycelial Control Score” value in the data set on Pythium ultimum [4] (setting [11]) is listed as 0 (<20% inhibition). In addition, in data set [9], the “% Control, barley powdery mildew” value is recorded as 99%.
